The values that follow are results of earlier work, collected in US20060246133A1, “Controlled release pharmaceutical compositions of liothyronine and methods of making and using the same” (priority 2005, published 2006).

The conditions of this data set: when administered in an immediate release form.

`N[C@@H](Cc1cc(I)c(Oc2ccc(O)c(I)c2)c(I)c1)C(=O)O` [liothyronine]: the half-life entry is given as “about 10 hours”.
